In patent publication US10858335B2 (Rigel Pharmaceuticals, Inc., priority 2014, dated 2020) one finds IC50 data, which are given here for 37 molecules.

Each structure is given as a SMILES string.

This assay concerns GDF8 signaling (p-SMAD-3 (Ser423/425)). As to the kind of experiment: AlphaScreen SureFire SMAD3 (p-Ser423/425) assay, GDF8-stimulated cells (GDF pSMAD). Conditions: Mus musculus, MPC-11, MPC11; GDF8-stimulated; p-SMAD3 AlphaScreen; read-out: GDF pSMAD (MPC11) (inhibition of GDF8 signaling). It is filed as cell-based. For orientation: Alpha assays give light when donor and acceptor beads are brought close together.

Take `Cc1cc(-c2nc3c(cc2-c2ccc4ncccc4c2)NC(=O)CO3)ccc1F` [compound 293, 6-(4-Fluoro-3-methylphenyl)-7-(quinolin-6-yl)-1H-pyrido[2,3-b] [1,4]oxazin-2(3H)-one]: the IC50 stood at 5540 nM. In the case of `Nc1nccc2ccc(-c3cccnc3-c3ccc(F)c(Cl)c3)cc12` [compound 297, 7-(2-(3-Chloro-4-fluorophenyl)pyridin-3-yl)isoquinolin-1-amine], the IC50 is 2260 nM. In the case of `Cc1cc(-c2ncccc2-c2ccc3ccnc(N)c3c2)ccc1F` [compound 298, 7-(2-(4-Fluoro-3-methylphenyl)pyridin-3-yl)isoquinolin-1-amine], the IC50 came out at 999 nM. In the case of `Cc1cc(-c2nc3c(cc2-c2ccc4[nH]ncc4c2)N(C)CCO3)ccc1F` [compound 300, 6-(4-Fluoro-3-methylphenyl)-7-(1H-indazol-5-yl)-1-methyl-2,3-dihydro-1H-pyrido[2,3-b][1,4]oxazine] it was 12800 nM; in that of `Nc1nc2ccc(-c3cccnc3-c3cccc(Cl)c3)nc2s1` [compound 301, 5-(2-(3-Chlorophenyl)pyridin-3-yl)thiazolo[5,4-b]pyridin-2-amine], 345 nM. On to `Nc1nc2ccc(-c3cccnc3-c3ccc(F)c(Cl)c3)nc2s1` [compound 302, 5-(2-(3-Chloro-4-fluorophenyl)pyridin-3-yl)thiazolo[5,4-b]pyridin-2-amine], for which the IC50 turned out to be 795 nM. In the case of `Cc1cc(-c2ncccc2-c2ccc3ncsc3n2)ccc1F` [compound 303, 5-(2-(4-Fluoro-3-methylphenyl)pyridin-3-yl)thiazolo[5,4-b]pyridine] it was 94.7 nM; in that of `Cc1cccc(-c2ncccc2-c2ccc3ncsc3n2)c1` [compound 304, 5-(2-(m-Tolyl)pyridin-3-yl)thiazolo[5,4-b]pyridine], 85.3 nM; in that of `Fc1ccc(-c2ncccc2-c2ccc3ncsc3n2)cc1Cl` [compound 305, 5-(2-(3-Chloro-4-fluorophenyl)pyridin-3-yl)thiazolo[5,4-b]pyridine], 175 nM. As to `Cc1cc(-c2ncc(NCc3cccnc3)cc2-c2ccc3ncsc3c2)ccc1F` [compound 306, 5-(Benzo[d]thiazol-6-yl)-6-(4-fluoro-3-methylphenyl)-N-(pyridin-3-ylmethyl)pyridin-3-amine], the IC50 worked out at 129 nM. Take `Cc1cc(-c2ncc(NCc3ccc(C(N)=O)cc3)cc2-c2ccc3nccnc3c2)ccc1F` [compound 307, 4-(((6-(4-Fluoro-3-methylphenyl)-5-(quinoxalin-6-yl)pyridin-3-yl)amino)methyl)benzamide]: the IC50 amounted to 2220 nM. In the case of `Cc1cc(-c2ncc(NCc3ccc(C#N)cc3)cc2-c2ccc3nccnc3c2)ccc1F` [compound 308, 4-(((6-(4-Fluoro-3-methylphenyl)-5-(quinoxalin-6-yl)pyridin-3-yl)amino)methyl)benzonitrile] it was 4810 nM; in that of `Cc1cc(-c2ncc(NCc3ccc(C#N)cc3)cc2-c2ccc3ncsc3c2)ccc1F` [compound 309, 4-(((5-(Benzo[d]thiazol-6-yl)-6-(4-fluoro-3-methylphenyl)pyridin-3-yl)amino)methyl)benzonitrile], 1480 nM; in that of `Cc1cc(-c2ncc(Nc3ccc(C(N)=O)cc3)cc2-c2ccc3ncsc3c2)ccc1F` [compound 310, 4-((5-(Benzo[d]thiazol-6-yl)-6-(4-fluoro-3-methylphenyl)pyridin-3-yl)amino)benzamide], 1140 nM.

With `Cc1cc(-c2ncc(Nc3ccncc3)cc2-c2ccc3ncsc3c2)ccc1F` [compound 311, 5-(Benzo[d]thiazol-6-yl)-6-(4-fluoro-3-methylphenyl)-N-(pyridin-4-yl)pyridin-3-amine], the IC50 was 4720 nM. As to `Cc1cc(-c2ncc(NC(=O)CCN3CCOCC3)cc2-c2ccc3ncsc3c2)ccc1F` [compound 312, N-(5-(Benzo[d]thiazol-6-yl)-6-(4-fluoro-3-methylphenyl)pyridin-3-yl)-3-morpholinopropanamide], the IC50 was determined as 7540 nM.

With `Cc1cc(-c2ncc(NC(=O)c3ccncc3)cc2-c2ccc3ncsc3c2)ccc1F` [compound 314, N-(5-(Benzo[d]thiazol-6-yl)-6-(4-fluoro-3-methylphenyl)pyridin-3-yl)isonicotinamide], the IC50 turned out to be 5340 nM. Regarding `Cc1cc(-c2ncc(NC(=O)c3cccnc3)cc2-c2ccc3ncsc3c2)ccc1F` [compound 315, N-(5-(Benzo[d]thiazol-6-yl)-6-(4-fluoro-3-methylphenyl)pyridin-3-yl)nicotinamide], the IC50 is 749 nM. For `CCCC(=O)Nc1cnc(-c2ccc(F)c(C)c2)c(-c2ccc3ncsc3c2)c1` [compound 316, N-(5-(Benzo[d]thiazol-6-yl)-6-(4-fluoro-3-methylphenyl)pyridin-3-yl)butyramide], the IC50 is 6390 nM. Regarding `Cc1cc(-c2ncc(NC(=O)CCCc3ccncc3)cc2-c2ccc3ncsc3c2)ccc1F` [compound 317, N-(5-(Benzo[d]thiazol-6-yl)-6-(4-fluoro-3-methylphenyl)pyridin-3-yl)-4-(pyridin-4-yl)butanamide], the IC50 amounted to 5500 nM. As to `Cc1cc(-c2ncc(-c3ccc(C(N)=O)cc3)cc2-c2ccc3ncsc3c2)ccc1F` [compound 318, 4-(5-(Benzo[d]thiazol-6-yl)-6-(4-fluoro-3-methylphenyl)pyridin-3-yl)benzamide], the IC50 was determined as 1300 nM. Regarding `Cc1cc(-c2ncc(N3CCN(C)CC3)cc2-c2ccc3ncsc3c2)ccc1F` [compound 319, 6-(2-(4-Fluoro-3-methylphenyl)-5-(4-methylpiperazin-1-yl)pyridin-3-yl)benzo[d]thiazole], the IC50 came to 10600 nM. Regarding `Cc1cc(-c2ncc(NCCCN3CCN(C)CC3)cc2-c2ccc3ncsc3c2)ccc1F` [compound 320, 5-(Benzo[d]thiazol-6-yl)-6-(4-fluoro-3-methylphenyl)-N-(3-(4-methylpiperazin-1-yl)propyl)pyridin-3-amine], the IC50 is 2990 nM. For the molecule `Cc1cc(-c2ncc(NCc3ccc(Cl)nc3)cc2-c2ccc3ncsc3c2)ccc1F` [compound 321, 5-(Benzo[d]thiazol-6-yl)-N-((6-chloropyridin-3-yl)methyl)-6-(4-fluoro-3-methylphenyl)pyridin-3-amine], the IC50 came to 679 nM. As for `Cc1cc(-c2ncc(NCc3cnc[nH]3)cc2-c2ccc3ncsc3c2)ccc1F` [compound 322, N-((1H-Imidazol-5-yl)methyl)-5-(benzo[d]thiazol-6-yl)-6-(4-fluoro-3-methylphenyl)pyridin-3-amine], the IC50 is 253 nM. `CCc1ncc(CNc2cnc(-c3ccc(F)c(C)c3)c(-c3ccc4ncsc4c3)c2)[nH]1` [compound 323, 5-(Benzo[d]thiazol-6-yl)-N-((2-ethyl-1H-imidazol-5-yl)methyl)-6-(4-fluoro-3-methylphenyl)pyridin-3-amine]: the IC50 is 327 nM. For the molecule `COc1ccc(CNc2cnc(-c3ccc(F)c(C)c3)c(-c3ccc4ncsc4c3)c2)cn1` [compound 324, 5-(Benzo[d]thiazol-6-yl)-6-(4-fluoro-3-methylphenyl)-N-((6-methoxypyridin-3-yl)methyl)pyridin-3-amine], the IC50 stood at 461 nM. With `Cc1cc(-c2ncc(NCc3nccs3)cc2-c2ccc3ncsc3c2)ccc1F` [compound 326, 5-(Benzo[d]thiazol-6-yl)-6-(4-fluoro-3-methylphenyl)-N-(thiazol-2-ylmethyl)pyridin-3-amine], the IC50 was found to be 198 nM.

Regarding `Cc1cc(-c2ncc(NCc3cncs3)cc2-c2ccc3ncsc3c2)ccc1F` [compound 327, 5-(Benzo[d]thiazol-6-yl)-6-(4-fluoro-3-methylphenyl)-N-(thiazol-5-ylmethyl)pyridin-3-amine], the IC50 came to 323 nM.

For the molecule `Cc1cc(-c2ncc(NCc3ccc(-c4cccnc4)nc3)cc2-c2ccc3ncsc3c2)ccc1F` [compound 328, N-([2,3′-Bipyridin]-5-ylmethyl)-5-(benzo[d]thiazol-6-yl)-6-(4-fluoro-3-methylphenyl)pyridin-3-amine], the IC50 was 2500 nM. In the case of `Cc1cc(-c2ncc(NCc3cnc4[nH]ccc4c3)cc2-c2ccc3ncsc3c2)ccc1F` [compound 329, N-((1H-Pyrrolo[2,3-b]pyridin-5-yl)methyl)-5-(benzo[d]thiazol-6-yl)-6-(4-fluoro-3-methylphenyl)pyridin-3-amine] it was 803 nM. `Cc1cc(-c2ncc(NCc3c[nH]c4ncccc34)cc2-c2ccc3ncsc3c2)ccc1F` [compound 330, N-((1H-Pyrrolo[2,3-b]pyridin-3-yl)methyl)-5-(benzo[d]thiazol-6-yl)-6-(4-fluoro-3-methylphenyl)pyridin-3-amine]: the IC50 was determined as 456 nM.

Turning to `Cc1cc(-c2ncc(NCc3cccnc3C)cc2-c2ccc3ncsc3c2)ccc1F` [compound 331, 5-(Benzo[d]thiazol-6-yl)-6-(4-fluoro-3-methylphenyl)-N-((2-methylpyridin-3-yl)methyl)pyridin-3-amine], the IC50 was determined as 1330 nM. As for `Cc1cc(-c2ncc(NCc3cccc(O)c3)cc2-c2ccc3ncsc3c2)ccc1F` [compound 332, 3-(((5-(Benzo[d]thiazol-6-yl)-6-(4-fluoro-3-methylphenyl)pyridin-3-yl)amino)methyl)phenol], the IC50 came out at 312 nM. In the case of `Cc1cc(-c2ncc(NCc3ccc(O)cc3)cc2-c2ccc3ncsc3c2)ccc1F` [compound 333, 4-(((5-(Benzo[d]thiazol-6-yl)-6-(4-fluoro-3-methylphenyl)pyridin-3-yl)amino)methyl)phenol] it was 376 nM; in that of `Cc1ccc(CNc2cnc(-c3ccc(F)c(C)c3)c(-c3ccc4ncsc4c3)c2)cn1` [compound 334, 5-(Benzo[d]thiazol-6-yl)-6-(4-fluoro-3-methylphenyl)-N-((6-methylpyridin-3-yl)methyl)pyridin-3-amine], 373 nM. With `Cc1cc(-c2ncc(NCc3cnc4c(c3)ncn4C)cc2-c2ccc3ncsc3c2)ccc1F` [compound 335, 5-(Benzo[d]thiazol-6-yl)-6-(4-fluoro-3-methylphenyl)-N-((3-methyl-3H-imidazo[4,5-b]pyridin-6-yl)methyl)pyridin-3-amine], the IC50 came out at 306 nM.
